Experimental data reported in ChEMBL document CHEMBL3112480, “γ-Alkylidene-γ-lactones and isobutylpyrrol-2(5H)-ones analogues to rubrolides as inhibitors of biofilm formation by gram-positive and gram-negative bacteria” (Bioorg Med Chem Lett, 2014).
Values after ≈ are worked out from the molar mass of the structure shown.

Key:
[1] = system: Staphylococcus aureus; assay: Antibacterial activity against Staphylococcus aureus ATCC 25923 assessed as effect on planktonic growth at 87.5 ug/ml after 20 hrs relative to control; assay type: functional
[2] = system: Pseudomonas aeruginosa; assay: Antibacterial activity against Pseudomonas aeruginosa ATCC 27853 assessed as inhibition of biofilm formation after 20 hrs by crystal-violet staining method; assay type: functional, organism-based; conditions: for IC50: ATCC 27853, 20 h
[3] = system: Staphylococcus aureus; assay: Antibacterial activity against Staphylococcus aureus ATCC 25923 assessed as effect on planktonic growth at 10.9 ug/ml after 20 hrs relative to control; assay type: functional
[4] = system: Staphylococcus epidermidis; assay: Antibacterial activity against Staphylococcus epidermidis ATCC 35547 assessed as effect on planktonic growth at 87.5 ug/ml after 20 hrs relative to control; assay type: functional
[5] = system: Staphylococcus epidermidis; assay: Antibacterial activity against Staphylococcus epidermidis ATCC 35547 assessed as effect on planktonic growth at 10.9 ug/ml after 20 hrs relative to control; assay type: functional
[6] = system: Pseudomonas aeruginosa; assay: Antibacterial activity against Pseudomonas aeruginosa ATCC 27853 assessed as effect on planktonic growth at 0.17 ug/ml after 20 hrs relative to control; assay type: functional
[7] = system: Staphylococcus epidermidis; assay: Induction of biofilm formation in Staphylococcus epidermidis ATCC 35547 at 87.5 ug/ml after 20 hrs by crystal-violet staining method relative to control; assay type: organism-based
[8] = system: Pseudomonas aeruginosa; assay: Antibacterial activity against Pseudomonas aeruginosa ATCC 27853 assessed as effect on planktonic growth at 43.8 ug/ml after 20 hrs relative to control; assay type: functional
[9] = system: Pseudomonas aeruginosa; assay: Antibacterial activity against Pseudomonas aeruginosa ATCC 27853 assessed as effect on planktonic growth at 1.37 ug/ml after 20 hrs relative to control; assay type: functional
[10] = system: Streptococcus mutans; assay: Antibacterial activity against Streptococcus mutans ATCC 25175 assessed as effect on planktonic growth at 0.17 ug/ml after 20 hrs relative to control; assay type: functional
[11] = system: Staphylococcus epidermidis; assay: Antibacterial activity against Staphylococcus epidermidis ATCC 35547 assessed as effect on planktonic growth at 21.9 ug/ml after 20 hrs relative to control; assay type: functional
[12] = system: Pseudomonas aeruginosa; assay: Antibacterial activity against Pseudomonas aeruginosa ATCC 27853 assessed as effect on planktonic growth at 10.9 ug/ml after 20 hrs relative to control; assay type: functional
[13] = system: Staphylococcus aureus; assay: Antibacterial activity against Staphylococcus aureus ATCC 25923 assessed as effect on planktonic growth at 21.9 ug/ml after 20 hrs relative to control; assay type: functional
[14] = system: Staphylococcus aureus; assay: Antibacterial activity against Staphylococcus aureus ATCC 25923 assessed as effect on planktonic growth at 0.17 ug/ml after 20 hrs relative to control; assay type: functional
[15] = system: Staphylococcus epidermidis; assay: Antibacterial activity against Staphylococcus epidermidis ATCC 35547 assessed as effect on planktonic growth at 2.73 ug/ml after 20 hrs relative to control; assay type: functional
[16] = system: Streptococcus mutans; assay: Antibacterial activity against Streptococcus mutans ATCC 25175 assessed as effect on planktonic growth at 43.8 ug/ml after 20 hrs relative to control; assay type: functional
[17] = system: Pseudomonas aeruginosa; assay: Antibacterial activity against Pseudomonas aeruginosa ATCC 27853 assessed as effect on planktonic growth at 5.5 ug/ml after 20 hrs relative to control; assay type: functional
[18] = system: Staphylococcus aureus; assay: Antibacterial activity against Staphylococcus aureus ATCC 25923 assessed as effect on planktonic growth at 1.37 ug/ml after 20 hrs relative to control; assay type: functional
[19] = system: Pseudomonas aeruginosa; assay: Antibacterial activity against Pseudomonas aeruginosa ATCC 27853 assessed as effect on planktonic growth at 87.5 ug/ml after 20 hrs relative to control; assay type: functional
[20] = system: Streptococcus mutans; assay: Antibacterial activity against Streptococcus mutans ATCC 25175 assessed as effect on planktonic growth at 10.9 ug/ml after 20 hrs relative to control; assay type: functional
[21] = system: Staphylococcus epidermidis; assay: Antibacterial activity against Staphylococcus epidermidis ATCC 35547 assessed as effect on planktonic growth at 0.17 ug/ml after 20 hrs relative to control; assay type: functional
[22] = system: Streptococcus mutans; assay: Antibacterial activity against Streptococcus mutans ATCC 25175 assessed as effect on planktonic growth at 0.68 ug/ml after 20 hrs relative to control; assay type: functional
[23] = system: Staphylococcus epidermidis; assay: Antibacterial activity against Staphylococcus epidermidis ATCC 35547 assessed as effect on planktonic growth at 43.8 ug/ml after 20 hrs relative to control; assay type: functional
[24] = system: Streptococcus mutans; assay: Antibacterial activity against Streptococcus mutans ATCC 25175 assessed as effect on planktonic growth at 2.73 ug/ml after 20 hrs relative to control; assay type: functional
[25] = system: Staphylococcus aureus; assay: Antibacterial activity against Staphylococcus aureus ATCC 25923 assessed as effect on planktonic growth at 5.5 ug/ml after 20 hrs relative to control; assay type: functional
[26] = system: Pseudomonas aeruginosa; assay: Antibacterial activity against Pseudomonas aeruginosa ATCC 27853 assessed as effect on planktonic growth at 21.9 ug/ml after 20 hrs relative to control; assay type: functional
[27] = system: Staphylococcus epidermidis; assay: Antibacterial activity against Staphylococcus epidermidis ATCC 35547 assessed as inhibition of biofilm formation after 20 hrs by crystal-violet staining method; assay type: functional, organism-based
[28] = system: Staphylococcus epidermidis; assay: Antibacterial activity against Staphylococcus epidermidis ATCC 35547 assessed as effect on planktonic growth at 0.34 ug/ml after 20 hrs relative to control; assay type: functional
[29] = system: Pseudomonas aeruginosa; assay: Antibacterial activity against Pseudomonas aeruginosa ATCC 27853 assessed as effect on planktonic growth at 2.73 ug/ml after 20 hrs relative to control; assay type: functional
[30] = system: Streptococcus mutans; assay: Antibacterial activity against Streptococcus mutans ATCC 25175 assessed as effect on planktonic growth at 87.5 ug/ml after 20 hrs relative to control; assay type: functional
[31] = system: Pseudomonas aeruginosa; assay: Antibacterial activity against Pseudomonas aeruginosa ATCC 27853 assessed as effect on planktonic growth at 0.68 ug/ml after 20 hrs relative to control; assay type: functional
[32] = system: Staphylococcus aureus; assay: Antibacterial activity against Staphylococcus aureus ATCC 25923 assessed as effect on planktonic growth at 2.73 ug/ml after 20 hrs relative to control; assay type: functional
[33] = system: Staphylococcus epidermidis; assay: Antibacterial activity against Staphylococcus epidermidis ATCC 35547 assessed as effect on planktonic growth at 0.68 ug/ml after 20 hrs relative to control; assay type: functional
[34] = system: Streptococcus mutans; assay: Antibacterial activity against Streptococcus mutans ATCC 25175 assessed as effect on planktonic growth at 5.5 ug/ml after 20 hrs relative to control; assay type: functional
[35] = system: Streptococcus mutans; assay: Antibacterial activity against Streptococcus mutans ATCC 25175 assessed as effect on planktonic growth at 1.37 ug/ml after 20 hrs relative to control; assay type: functional
[36] = system: Staphylococcus epidermidis; assay: Antibacterial activity against Staphylococcus epidermidis ATCC 35547 assessed as effect on planktonic growth at 1.37 ug/ml after 20 hrs relative to control; assay type: functional
[37] = system: Staphylococcus epidermidis; assay: Antibacterial activity against Staphylococcus epidermidis ATCC 35547 assessed as effect on planktonic growth at 5.5 ug/ml after 20 hrs relative to control; assay type: functional
[38] = system: Staphylococcus aureus; assay: Antibacterial activity against Staphylococcus aureus ATCC 25923 assessed as effect on planktonic growth at 0.34 ug/ml after 20 hrs relative to control; assay type: functional
[39] = system: Streptococcus mutans; assay: Antibacterial activity against Streptococcus mutans ATCC 25175 assessed as effect on planktonic growth at 21.9 ug/ml after 20 hrs relative to control; assay type: functional
[40] = system: Staphylococcus aureus; assay: Antibacterial activity against Staphylococcus aureus ATCC 25923 assessed as effect on planktonic growth at 0.68 ug/ml after 20 hrs relative to control; assay type: functional
[41] = system: Pseudomonas aeruginosa; assay: Antibacterial activity against Pseudomonas aeruginosa ATCC 27853 assessed as effect on planktonic growth at 0.34 ug/ml after 20 hrs relative to control; assay type: functional
[42] = system: Staphylococcus aureus; assay: Antibacterial activity against Staphylococcus aureus ATCC 25923 assessed as effect on planktonic growth at 43.8 ug/ml after 20 hrs relative to control; assay type: functional
[43] = system: Streptococcus mutans; assay: Antibacterial activity against Streptococcus mutans ATCC 25175 assessed as effect on planktonic growth at 0.34 ug/ml after 20 hrs relative to control; assay type: functional
[44] = system: Streptococcus mutans; assay: Antibacterial activity against Streptococcus mutans ATCC 25175 assessed as inhibition of biofilm formation at 44 ug/ml after 20 hrs by crystal-violet staining method relative to control; assay type: functional; conditions: ATCC 25175, 20 h

COc1cccc(CC2(O)C(c3cc(Cl)ccc3OC)=C(Br)C(=O)N2CC(C)C)c1 (centres undefined)
Activity [1]: 22.1%
inhibition [2]: Dose-dependent effect
IC50 [2]: 2.2 µg/mL (≈ 4.45 µM)
Activity [3]: -9.9%
Activity [4]: 14.5%
Activity [5]: -0.3%
Activity [6]: -4%
Activity [7]: 46.9%
Activity [8]: -2.3%
Activity [9]: -4.2%
Activity [10]: -14%
Activity [11]: 6.9%
Activity [12]: -3.3%
Activity [13]: -15.1%
Activity [14]: 2%
Activity [15]: 3.4%
Activity [16]: 6.5%
Activity [17]: -5.5%
Activity [18]: 6.8%
Activity [19]: -3.6%
Activity [20]: -3.7%
Activity [21]: 10%
Activity [22]: -12.5%
Activity [23]: 15.7%
Activity [24]: 0.3%
Activity [25]: -8.1%
Activity [26]: -3.7%
inhibition [27]: Dose-dependent effect
Activity [28]: 3.3%
Activity [29]: -18.9%
Activity [30]: 9%
Activity [31]: -6.7%
Activity [32]: 2.3%
Activity [33]: 5.1%
Activity [34]: 1.6%
Activity [35]: -8.7%
Activity [36]: 4.7%
Activity [37]: 6.4%
Activity [38]: 0.7%
Activity [39]: -0.6%
Activity [40]: -5%
Activity [41]: -5.8%
Activity [42]: 0.7%
Activity [43]: -12.5%

COc1ccc(C)cc1C1=C(Br)C(=O)N(CC(C)C)/C1=C/c1cccc(Cl)c1
Activity [1]: -3.2%
inhibition [2]: Dose-dependent effect
IC50 [2]: 2.4 µg/mL (≈ 5.21 µM)
Activity [3]: 0%
Activity [4]: 39.2%
Activity [5]: 14.3%
Activity [6]: -2.3%
Activity [8]: 10.5%
Activity [9]: -0.9%
Activity [10]: -1.7%
Activity [11]: 16.6%
Activity [12]: 1.8%
Activity [13]: 0.6%
inhibition at 44 µg/mL [44]: 31.7%
Activity [14]: 4.1%
Activity [15]: 18.1%
Activity [16]: -28.3%
Activity [17]: 1.5%
Activity [18]: 12.5%
Activity [19]: 29.8%
Activity [20]: -12.4%
Activity [21]: 13.9%
Activity [22]: -2.3%
Activity [23]: 33.5%
Activity [24]: -6.8%
Activity [25]: 4.6%
Activity [26]: 7.8%
inhibition [27]: Dose-dependent effect
IC50 ([27]; ATCC 35547, 20 h): 81.4 µg/mL (≈ 177 µM)
Activity [28]: 16.2%
Activity [29]: 0.3%
Activity [30]: -32.5%
Activity [31]: -1.3%
Activity [32]: 9.2%
Activity [33]: 6.3%
Activity [34]: -6.4%
Activity [35]: -4.9%
Activity [36]: 4.2%
Activity [37]: 8.4%
Activity [38]: 2.9%
Activity [39]: -22.7%
Activity [40]: 5.8%
Activity [41]: -2.2%
Activity [42]: 1.8%
Activity [43]: -2.3%
